Test results reported in ChEMBL document CHEMBL5104107, “Toward the Design of Ligands Selective for the C-Terminal Domain of TEADs” (J Med Chem, 2022).

Legend:
[1] = target: Transcriptional enhancer factor TEF-4 (Homo sapiens) (UniProt Q15562); assay: Thermal stabilization of C-terminal human TEAD2 (217 to 447 residues) assessed as change in melting temperature by thermal shift assay
[2] = target: Transcriptional enhancer factor TEF-1 (Homo sapiens) (UniProt P28347); assay: Binding affinity to recombinant TEAD1 (unknown origin) assessed as increase in thermal stability by thermal shift assay
Sequence of Transcriptional enhancer factor TEF-1 (Homo sapiens) (P28347 whole entry): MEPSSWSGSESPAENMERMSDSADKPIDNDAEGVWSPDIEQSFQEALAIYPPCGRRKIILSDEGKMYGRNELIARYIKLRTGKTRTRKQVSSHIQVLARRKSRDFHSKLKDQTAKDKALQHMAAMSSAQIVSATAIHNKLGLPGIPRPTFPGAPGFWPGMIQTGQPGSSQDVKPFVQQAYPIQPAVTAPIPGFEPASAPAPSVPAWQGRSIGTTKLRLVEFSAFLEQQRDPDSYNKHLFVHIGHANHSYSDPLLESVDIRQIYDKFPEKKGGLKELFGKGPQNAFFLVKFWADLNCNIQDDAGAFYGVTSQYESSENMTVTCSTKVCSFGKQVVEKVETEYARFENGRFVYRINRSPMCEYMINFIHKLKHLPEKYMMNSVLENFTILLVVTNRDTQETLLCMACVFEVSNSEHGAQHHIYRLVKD

[3] = target: Transcriptional enhancer factor TEF-4 (Homo sapiens) (UniProt Q15562); assay: Binding affinity to recombinant TEAD2 (unknown origin) assessed as increase in thermal stability by thermal shift assay

Sequence of Transcriptional enhancer factor TEF-4 (Homo sapiens) (Q15562 whole entry, the tested form may be a part): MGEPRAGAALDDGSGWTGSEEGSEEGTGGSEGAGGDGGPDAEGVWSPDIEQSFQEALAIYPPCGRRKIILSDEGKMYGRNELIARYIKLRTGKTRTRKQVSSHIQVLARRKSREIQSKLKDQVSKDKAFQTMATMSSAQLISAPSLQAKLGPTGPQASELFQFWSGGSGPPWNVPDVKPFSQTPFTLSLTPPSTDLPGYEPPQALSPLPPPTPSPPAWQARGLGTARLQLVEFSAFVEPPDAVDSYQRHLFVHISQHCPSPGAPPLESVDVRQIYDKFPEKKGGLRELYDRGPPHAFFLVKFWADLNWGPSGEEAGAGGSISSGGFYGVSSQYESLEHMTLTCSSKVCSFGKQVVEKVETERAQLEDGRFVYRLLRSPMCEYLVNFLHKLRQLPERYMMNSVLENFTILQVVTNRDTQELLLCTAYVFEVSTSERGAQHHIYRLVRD

## Nc1cccc(-c2cc[nH]n2)c1
[1]
  ΔTm: 0.95 °C

## CNS(=O)(=O)c1ccc(Nc2ccc(C(F)(F)F)cc2)c(-c2cn(C)cn2)c1
[2]
  deltaT: 8.3 °C
[3]
  deltaT: 4.2 °C
